Measured values from US20240400551A1, “NEK7 INHIBITORS” (HALIA THERAPEUTICS, INC., priority 2021, published 2024).

System: IL-1β release from THP-1 cells
Assay: IL-1β release assay
Assay type: cell-based
Conditions: Homo sapiens; PMA-treated THP-1 cells, 250 ng/mL LPS then 20 μM nigericin; cleaved IL-1β in media
Method: Approximately 1.5 million THP-1 cells were plated in each well of a 6-well TC plate and incubated with 40 nM PMA in RPMI (10% FBS, 1% Penstrep) for 24 hours. The media was then removed and cells were rested in RPMI (10% FBS, 1% Penstrep) for 24 hours after which time the media was removed and cells were pre-treated for 2 hours with various concentrations of compounds of interest (typically serial 3-fold dilution in RPMI+5% FBS, concentrations ranging from 1 μM to 0.5 nM) in RPMI (5% FBS). The media was again removed and cells were incubated with 250 ng/mL LPS and compounds of interest (concentrations as above) in RMPI (5% FBS) for 2 hours. The media was removed for a last time and cells were incubated with 20 μM nigericin and compounds of interest (concentrations as above) in Opti-MEM for 30 minutes. Cell media was then collected and the amount of cleaved IL-1β was determined using a JESS instrument (Protein Simple) and standard protocols. Cleaved Il-1β antibody was obtained from Cell Signaling (catalogue #83186S) and was used at 1:20 dilution in antibody diluent 2. Protein Simple 1× anti-Rabbit HRP secondary antibody was used along with Protein Simple luminol and peroxide for chemiluminescent detection. Primary antibody incubation time was increased from 30 minutes to 60 minutes.

Question: How did the IC50 turn out when `O=C(Nc1ccc(Oc2ccnc3[nH]cc(Cl)c23)cc1F)Nc1cc(C2CC2)nn1-c1ccccc1` [Compound I-11, 1-(4-((3-chloro-1H-pyrrolo[2,3-b]pyridin-4-yl)oxy)-2-fluorophenyl)-3-(3-cyclopropyl-1-phenyl-1H-pyrazol-5-yl)urea] was run?
Answer: The IC50 was > 1000 nM.
